≈ marks a conversion by molar mass, not a printed value.
What was measured:
Type in all cases: functional
[1] = tested on: Staphylococcus aureus; test: Antibacterial activity against vancomycin-susceptible Staphylococcus aureus Mu50omega after 24 hrs by Etest
[2] = tested on: Staphylococcus aureus; test: Antibacterial activity against vancomycin-intermediate Staphylococcus aureus Mu50 after 48 hrs by Etest
[3] = tested on: Staphylococcus aureus; test: Antibacterial activity against vancomycin-susceptible Staphylococcus aureus Mu50omega expressing vraSm mutant gene after 48 hrs by Etest
[4] = tested on: Staphylococcus aureus; test: Antibacterial activity against vancomycin-susceptible Staphylococcus aureus Mu50omega expressing vraSm, graRm mutant gene after 48 hrs by Etest
[5] = tested on: Staphylococcus aureus; test: Antibacterial activity against vancomycin-susceptible Staphylococcus aureus Mu50omega expressing vraSm, graRm mutant gene after 24 hrs by Etest
[6] = tested on: Staphylococcus aureus; test: Antibacterial activity against vancomycin-susceptible Staphylococcus aureus Mu50omega expressing vraSn mutant gene after 24 hrs by Etest
[7] = tested on: Staphylococcus aureus; test: Antibacterial activity against vancomycin-susceptible Staphylococcus aureus Mu50omega expressing vraSn mutant gene after 48 hrs by Etest
[8] = tested on: Staphylococcus aureus; test: Antibacterial activity against vancomycin-susceptible Staphylococcus aureus Mu50omega expressing vraSm mutant gene after 24 hrs by Etest
[9] = tested on: Staphylococcus aureus; test: Antibacterial activity against vancomycin-susceptible Staphylococcus aureus Mu50omega after 48 hrs by Etest
[10] = tested on: Staphylococcus aureus; test: Antibacterial activity against vancomycin-intermediate Staphylococcus aureus Mu50 after 24 hrs by Etest
[11] = tested on: Staphylococcus aureus; test: Antibacterial activity against vancomycin-susceptible Staphylococcus aureus Mu50omega after 24 hrs by Etest in presence of Sulbactam
[12] = tested on: Staphylococcus aureus; test: Antibacterial activity against vancomycin-intermediate Staphylococcus aureus Mu50 after 24 hrs by Etest in presence of Sulbactam; settings: Mu50, 24 h
[13] = tested on: Staphylococcus aureus; test: Antibacterial activity against vancomycin-susceptible Staphylococcus aureus Mu50omega expressing vraSn mutant gene after 48 hrs by Etest in presence of Sulbactam
[14] = tested on: Staphylococcus aureus; test: Antibacterial activity against vancomycin-susceptible Staphylococcus aureus Mu50omega expressing vraSm, graRm mutant gene after 24 hrs by Etest in presence of Sulbactam
[15] = tested on: Staphylococcus aureus; test: Antibacterial activity against vancomycin-susceptible Staphylococcus aureus Mu50omega expressing vraSn mutant gene after 24 hrs by Etest in presence of Sulbactam
[16] = tested on: Staphylococcus aureus; test: Antibacterial activity against vancomycin-susceptible Staphylococcus aureus Mu50omega expressing vraSm, graRm mutant gene after 48 hrs by Etest in presence of Sulbactam
[17] = tested on: Staphylococcus aureus; test: Antibacterial activity against vancomycin-susceptible Staphylococcus aureus Mu50omega expressing vraSm mutant gene after 24 hrs by Etest in presence of Sulbactam
[18] = tested on: Staphylococcus aureus; test: Antibacterial activity against vancomycin-intermediate Staphylococcus aureus Mu50 after 48 hrs by Etest in presence of Sulbactam; settings: Mu50, 48 h
[19] = tested on: Staphylococcus aureus; test: Antibacterial activity against vancomycin-susceptible Staphylococcus aureus Mu50omega after 48 hrs by Etest in presence of Sulbactam
[20] = tested on: Staphylococcus aureus; test: Antibacterial activity against vancomycin-susceptible Staphylococcus aureus Mu50omega expressing vraSm mutant gene after 48 hrs by Etest in presence of Sulbactam

Row | Compound | MIC [1] [µg/mL] | MIC ([2]; Mu50, 48 h) [µg/mL] | MIC [3] [µg/mL] | MIC [4] [µg/mL] | MIC [5] [µg/mL] | MIC [6] [µg/mL] | MIC [7] [µg/mL] | MIC [8] [µg/mL] | MIC [9] [µg/mL] | MIC ([10]; Mu50, 24 h) [µg/mL] | further results
1 | CN[C@H](CC(C)C)C(=O)N[C@H]1C(=O)N[C@@H](CC(N)=O)C(=O)N[C@H]2C(=O)N[C@H]3C(=O)N[C@H](C(=O)N[C@H](C(=O)O)c4cc(O)cc(O)c4-c4cc3ccc4O)[C@H](O)c3ccc(c(Cl)c3)Oc3cc2cc(c3O[C@@H]2O[C@H](CO)[C@@H](O)[C@H](O)[C@H]2O[C@H]2C[C@](C)(N)[C@H](O)[C@H](C)O2)Oc2ccc(cc2Cl)[C@H]1O [VANCOMYCIN] | 0.5 (≈ 0.345 µM) | 7 (≈ 4.83 µM) | 5 (≈ 3.45 µM) | 7 (≈ 4.83 µM) | 6 (≈ 4.14 µM) | 3.5 (≈ 2.42 µM) | 4 (≈ 2.76 µM) | 4.5 (≈ 3.11 µM) | 1 (≈ 0.69 µM) | 6 (≈ 4.14 µM) | 
2 | CC[C@H]1OC(=O)[C@H](C)[C@@H](O[C@H]2C[C@@](C)(OC)[C@@H](O)[C@H](C)O2)[C@H](C)[C@@H](O[C@@H]2O[C@H](C)C[C@H](N(C)C)[C@H]2O)[C@](C)(O)C[C@@H](C)C(=O)[C@H](C)[C@@H](O)[C@]1(C)O [ERYTHROMYCIN] | > 256 | > 250 |  |  |  |  |  |  | > 256 | > 250 | 
3 | CC1(C)S[C@@H]2[C@H](NC(=O)[C@H](N)c3ccccc3)C(=O)N2[C@H]1C(=O)O [AMPICILLIN] | 1 (≈ 2.86 µM) | 8 (≈ 22.9 µM) | 12 (≈ 34.3 µM) | 12 (≈ 34.3 µM) | 12 (≈ 34.3 µM) | 12 (≈ 34.3 µM) | 12 (≈ 34.3 µM) | 12 (≈ 34.3 µM) | 1 (≈ 2.86 µM) | 8 (≈ 22.9 µM) | MIC [11]: 2 µg/mL; MIC [12]: 48 µg/mL; MIC [13]: 48 µg/mL; MIC [14]: 64 µg/mL; MIC [15]: 48 µg/mL; MIC [16]: 64 µg/mL; MIC [17]: 64 µg/mL; MIC [18]: 48 µg/mL; MIC [19]: 2 µg/mL; MIC [20]: 64 µg/mL
4 | CC(=O)OCC1=C(C(=O)O)N2C(=O)[C@@H](NC(=O)Cc3cccs3)[C@H]2SC1 [CEPHALOTHIN] | 0.25 (≈ 0.631 µM) | 128 (≈ 323 µM) | > 256 | > 256 | > 256 | > 256 | > 256 | > 256 | 0.38 (≈ 0.959 µM) | 128 (≈ 323 µM) | 
5 | CN(C)[C@@H]1C(O)=C(C(N)=O)C(=O)[C@@]2(O)C(O)=C3C(=O)c4c(O)cccc4[C@@](C)(O)[C@H]3C[C@@H]12 [TETRACYCLINE] | 32 (≈ 72 µM) | 48 (≈ 108 µM) | 48 (≈ 108 µM) | 48 (≈ 108 µM) | 24 (≈ 54 µM) | 24 (≈ 54 µM) | 48 (≈ 108 µM) | 24 (≈ 54 µM) | 48 (≈ 108 µM) | 32 (≈ 72 µM) | 
6 | CN(C)c1ccc(O)c2c1C[C@H]1C[C@H]3[C@H](N(C)C)C(O)=C(C(N)=O)C(=O)[C@@]3(O)C(O)=C1C2=O [MINOCYCLINE] | 10 (≈ 21.9 µM) | 24 (≈ 52.5 µM) | 24 (≈ 52.5 µM) | 24 (≈ 52.5 µM) | 8 (≈ 17.5 µM) | 8 (≈ 17.5 µM) | 24 (≈ 52.5 µM) | 8 (≈ 17.5 µM) | 24 (≈ 52.5 µM) | 12 (≈ 26.2 µM) | 
7 | COc1cccc(OC)c1C(=O)N[C@@H]1C(=O)N2[C@@H]1SC(C)(C)[C@@H]2C(=O)O [METHICILLIN] | > 256 | > 256 |  |  |  |  |  |  | > 256 | > 256 | 
8 | GENTAMICIN | 0.064 |  | 0.064 | 0.064 | 0.064 | 64 | 0.064 | 0.064 | 0.064 |  | MIC [2]: 0.128 µg/mL; MIC [10]: 0.128 µg/mL
9 | Cc1onc(-c2ccccc2)c1C(=O)N[C@@H]1C(=O)N2[C@@H]1SC(C)(C)[C@@H]2C(=O)O [OXACILLIN] | 8 (≈ 19.9 µM) | > 256 | > 256 | > 256 | > 256 | > 256 | > 256 | > 256 | 8 (≈ 19.9 µM) | > 256 | 
10 | O=C(O)c1cn(C2CC2)c2cc(N3CCNCC3)c(F)cc2c1=O [CIPROFLOXACIN] | > 32 | > 32 |  |  |  |  |  |  | > 32 | > 32 | 
11 | CCCCCCCCCC(=O)N[C@@H](Cc1c[nH]c2ccccc12)C(=O)N[C@H](CC(N)=O)C(=O)N[C@@H](CC(=O)O)C(=O)N[C@@H]1C(=O)NCC(=O)N[C@@H](CCCN)C(=O)N[C@@H](CC(=O)O)C(=O)N[C@H](C)C(=O)N[C@@H](CC(=O)O)C(=O)NCC(=O)N[C@H](CO)C(=O)N[C@@H]([C@H](C)CC(=O)O)C(=O)N[C@@H](CC(=O)c2ccccc2N)C(=O)O[C@@H]1C | 1 (≈ 0.617 µM) | 2 (≈ 1.23 µM) | 1.5 (≈ 0.926 µM) | 2 (≈ 1.23 µM) | 2 (≈ 1.23 µM) | 1.5 (≈ 0.926 µM) | 1.5 (≈ 0.926 µM) | 1.5 (≈ 0.926 µM) | 1 (≈ 0.617 µM) | 2 (≈ 1.23 µM) | 

Reference: ChEMBL document CHEMBL1629665, “Contribution of vraSR and graSR point mutations to vancomycin resistance in vancomycin-intermediate Staphylococcus aureus” (2009)
